Experimental findings from patent US20220202739A1, “ENDOCANNABINOID MIMETIC AND ANTI-INFLAMMATORY COMPOUND CONTAINING COMPOSITIONS, METHODS OF PREPARATION AND USES THEREOF” (priority 2019, published 2022) are described below.

Holding throughout (type): cell-based
The test system of one experiment is CNR1. Briefly: Gene expression custom microarray, human skin fibroblasts (Example 1): CNR1. The source says:
(§1) Cell cultures: A human skin fibroblast cell culture (or cultures) was obtained through the Coriell Cell Repository from the National Institute on Aging Cell Repository (Camden, N.J.), or Promocell GmbH (Heidelberg, Germany). The initial culture was selected from the following cell lines: AG13066, AG11557, AG11796 or GM03651E. The cell lines were derived from donors as follows:
(§2) Experimental phase: When the appropriate quantity of cells had been grown, they were detached as described above, but at the final step were seeded into each well of one or more 6 well dishes. Each well received 2 ml of the cell suspension so they were seeded equally. The dishes were returned to the incubator until 85-95% confluency was reached.
(§3) It is at this stage that all wells were rinsed in PBS after aspirating the growth media. The compound(s) to be tested were previously mixed into a suitable solvent (e.g., DMSO or ethanol) that can be diluted to the desired concentration of test compound (10 μl) in the culture wells without exceeding maximum solvent concentrations and adversely effecting cell viability, and mixed with basal media. NOTE: Standard maximum levels of solvent are 0.1% for DMSO and 0.5% for ETOH. The concentration of each test compound is found in Tables 1 & 2.
(§4) Every 2 wells on the 6 well plate served as a biological replicate for the purposes of RNA isolation and genetic expression evaluations making each 6 well dish an n=3 for the test compound(s) contained in the media. Negative control plates (no test compound(s) and only basal media) were also generated. The plates were returned to the incubator for 24 hrs.
(§5) At the end of the 24 hr time period, the plates were removed from the incubator, the test media aspirated, and the cells rinsed with PBS. RNA isolation is performed using the BioRad Aurum Total RNA Mini Kit (Hercules, Calif.) per manufacturer's protocol; which is described, in brief, below: • Add 350 μl of lysis buffer to each well. Pipet multiple times to ensure thorough lysis. Add lysed cells to the collection tube. • Add 350 μl of 70% ETOH to the collection tube and mix thoroughly. • Pipet the generated lysate onto the spin column placed in a new 2 ml tube. Centrifuge for 30 sec between 8,000 and 10,000 g. • Place the spin column containing the now bound RNA, in a new 2 ml tube. Add 700 μl of low stringency wash solution to the spin column. Centrifuge for 30 sec between 8,000 and 10,000 g. Discard the flow through and replace spin column. • Add 80 μl of DNase I dilution to the spin column and incubate at room temperature for 15 minutes. • Add 700 μl of high stringency wash solution to the column and centrifuge for 30 sec between 8,000 and 10,000 g. Discard flow through. • Add 700 μl of low stringency wash solution to the column and centrifuge for 60 sec between 8,000 and 10,000 g. Discard flow through. • Centrifuge for 2 minutes to remove residual wash solution. • Transfer spin column to new 1.5 ml collection tube and add 80 μl of elution solution to the column. Allow 1 minute for saturation of the membrane and then centrifuge for 2 minutes to complete the RNA elution. • Quantify the quantity of RNA and store at −20 C° until use (no more than 1 month)
(§6) The genes tested were: • Cannabinoid receptor 1 (CB1(CNR1)) • Cannabinoid receptor 2 (CB2 (CNR2)) • Fatty acid amide hydrolase (FAAH) • Monoacylglycerol lipase (MGLL, i.e., MAGL) • Peroxisome proliferator-activated receptor gamma (PPARG) • Nuclear factor kappa-light-chain-enhancer of activated B cells (NFκβ) • Interleukin 1 Alpha (IL1alpha) • Cyclooxygenase 1 (PTGS1, i.e., COX1) • Transient receptor potential cation channel subfamily A member 1 (TRPA1) • Transient receptor potential cation channel subfamily V member 1 (TRPV1) • Transient receptor potential cation channel subfamily M member 8 (TRPM8) • Hemoglobin Subunit Beta (HBB) REFERENCE GENE • Ribosomal Protein L13a (RPL13A) REFERENCE GENE […]

Another experiment concerns MAGL. Briefly: Gene expression custom microarray, human skin fibroblasts (Example 1): MAGL.
From the text: as §1, §2, §3, §4, §5, §6

For a further experiment, the system named is PTGS1. Nature of the experiment: Gene expression custom microarray, human skin fibroblasts (Example 1): PTGS1. The settings on record: human skin fibroblasts, 10 uM, 24 hr.
From the text: as §1, §2, §3, §4, §5, §6

In a further experiment the test system is NFKB1. Briefly: Gene expression custom microarray, human skin fibroblasts (Example 1): NFKB1. The following applies: human skin fibroblasts, 10 uM, 24 hr.
From the text: as §1, §2
It is at this stage that all wells were rinsed in PBS after aspirating the growth media. The compound(s) to be tested were previously mixed into a suitable solvent (e.g., DMSO or ethanol) that can be diluted to the desired concentration of test compound (10 μl) in the culture wells without exceeding maximum solvent concentrations and adversely effecting cell viability, and mixed with basal media. NOTE: Standard maximum levels of solvent are 0.1% for DMSO and 0.5% for ETOH.
as §4, §5
The genes tested were: • Cannabinoid receptor 1 (CB1(CNR1)) • Cannabinoid receptor 2 (CB2 (CNR2)) • Fatty acid amide hydrolase (FAAH) • Monoacylglycerol lipase (MGLL, i.e., MAGL) • Peroxisome proliferator-activated receptor gamma (PPARG) • Nuclear factor kappa-light-chain-enhancer of activated B cells (NFκβ) • Interleukin 1 Alpha (IL1alpha) • Cyclooxygenase 1 (PTGS1, i.e., COX1) • Transient receptor potential cation channel subfamily A member 1 (TRPA1) • Transient receptor potential cation channel subfamily V member 1 (TRPV1) • Transient receptor potential cation channel subfamily M member 8 (TRPM8) • Hemoglobin Subunit Beta (HBB) REFERENCE GENE • Ribosomal Protein L13a (RPL13A) REFERENCE GENE

In a further experiment the test system is FAAH. Nature of the experiment: Gene expression custom microarray, human skin fibroblasts (Example 1): FAAH.
From the text: as §1, §2, §3, §4, §5, §6

The mark [1] stands for this setting: human skin fibroblasts, 10 uM, 24 hr.

Molecules are shown by their SMILES.

Turning to `C=C(C)[C@@H]1CCC(C)=C[C@H]1c1c(O)cc(CCCCC)cc1O` [CBD, cannabidiol, reference compound], the fold induction at 10 µM was found to be 1.5 in the experiment with CNR1 (Homo sapiens, Skin fibroblast, 24 h, read-out: CNR1↑ gene expression, fold increase or decrease vs untreated cells); 1.8 with MAGL (Homo sapiens, Skin fibroblast, 24 h, read-out: MAGL↓ gene expression, fold increase or decrease vs untreated cells); 4.2 in the experiment with PTGS1 (Skin fibroblast, read-out: PTGS1↓ gene expression, fold increase or decrease vs untreated cells); 2.3 in the experiment with NFKB1 (Skin fibroblast, read-out: NFKB1↓ gene expression, fold increase or decrease vs untreated cells); 2.2 in the experiment with FAAH (Homo sapiens, Skin fibroblast, 24 h, read-out: FAAH↓ gene expression, fold increase or decrease vs untreated cells).

With `CCCCCCCCCCCCCCCC(=O)NCCO` [N-palmitoylethanolamide], the “CNR1↑ gene expression, fold increase or decrease vs untreated cells” value in the experiment with CNR1 (setting [1]) came out at 5.9 fold. For the same compound, the “MAGL↓ gene expression, fold increase or decrease vs untreated cells” value in the experiment with MAGL (setting [1]) is on record as 2.8 fold. In addition, in the experiment with PTGS1, the “PTGS1↓ gene expression, fold increase or decrease vs untreated cells” value is 1.1 fold. Also, the “NFKB1↓ gene expression, fold increase or decrease vs untreated cells” value in the experiment with NFKB1 was determined as 1.5 fold. Also, the “FAAH↓ gene expression, fold increase or decrease vs untreated cells” value in the experiment with FAAH (setting [1]) is reported as −1.1 fold.
